According to patent US8507463B2, “Nucleotide analogue prodrug and the preparation thereof” (Jiangsu Chia Tai Tianqing Pharmaceutical Co., Ltd., priority 2005, dated 2013):
Counter-ions that a name gives are not always drawn. Like-named read-outs stand apart in the source and are kept apart here. One block for each compound: values may come before it.

Key:
[1] = Stability analysis, overall conclusion in words; format: physicochemical; conditions: from light, high temperature, high humidity and acceleration tests
[2] = High humidity test (room temperature, relative humidity 75±5%); format: physicochemical; conditions: 25° C.
Method: Samples were evenly spread out and placed in open culture dishes, wherein the thickness thereof was less than 5 mm, put in a thermostatic drying chamber at room temperature (25° C.) with relative humidity of 75±5%. Then the samples were taken on the fifth and tenth day respectively for determination, compared with the result of day 0, results were listed in the table below

[3] = Light exposure test (4500±500 Lx); format: physicochemical; conditions: light 4500±500 Lx
Source text: Samples were evenly spread out and placed in open culture dishes and the thickness thereof was less than 5 mm, then distances were adjusted until the illumination intensity was 4500±500 Lx, samples were taken on the fifth and tenth day respectively for determination, compared with the result of day 0, results were listed in the table below: […]

[4] = format: physicochemical; conditions: for amount of solvent (ml), 0.1N HCl / amount of solvent (ml), 0.1N NaOH / amount of solvent (ml), anhydrous ethanol / amount of solvent (ml), methanol / amount of solvent (ml), water: to dissolve 1 g of sample
[5] = High temperature test (60° C.); format: physicochemical; conditions: sealed ampoules
Method: Samples were sealed in clean glass ampoules and put in 60° C. thermostatic drying chamber, then they were taken on the fifth and tenth day respectively for determination, compared with the result of day 0, results were listed in the table below:
Samples were sealed in clean glass ampoules and put in 60° C. thermostatic drying chamber, then they were taken on the fifth and tenth day respectively for determination, compared with the result of day 0, results were listed in the table below

[6] = Acceleration test (40° C., relative humidity 75%); format: physicochemical
Method: Samples were sealed with polyethylene plastic bags, placed in the thermostatic drying chamber at 40±2° C. with relative humidity of 75±5% for 3 months. Then the samples were taken at the end of the first, second and third month respectively for determination, compared with the result of day 0, results were listed in the table below: […]

[7] = Acute toxicity test, median lethal dose (LD50); conditions: both sexes, mouse, in vivo, oral, mice, infused into the stomach, observed 14 days
Method: TD fumarate and TD crystalline form A were dissolved in 0.1M citric acid aqueous solution respectively, 140 healthy mice with 18˜22 g body-weight was selected, randomly divided into 14 groups, 10 per group, and the number of male and female mice were equal.
Following the preliminary test, TD fumarate and TD crystalline form A were administered to 7 different dosing groups by infusing into the stomach, observed for 14 days consecutively to investigate the toxic reaction and death cases of mice and then LD50 was calculated.

[8] = Bioavailability: blood concentration-time from plasma radioactivity; format: in vivo; conditions: mice, intragastric 30 mg/kg
Method: 10 mice were randomly divided into 2 groups, 5 per group, intragastricly administered 3H-TD fumarate and Tenofovir Disoproxil Fumarate at 30 mg/kg with radio dose of 135 μCi/kg respectively. Plasm samples in different times were taken to measure the radioactivity, which was then converted into the plasma concentration.
Comparison of the blood concentration (ug/ml)-time of 3H-TD fumarate and Tenofovir Disoproxil Fumarate.

Duck Hepatitis B Virus = assay: Anti-viral (anti-HBV) test in vivo, DHBV-DNA level by PCR; parameters: species or system GaoYou pockmark ducks; conditions: ducks, once a day, day 0 level as base line of 100
Method: Two-month old pockmark ducks vertically infected with Duck Hepatitis B Virus were selected as animal models to conduct anti-HBV test in vivo, the efficacy was investigated. 80 GaoYou pockmark ducks were divided randomly into. 8 groups, 10 ducks per groups, three groups were given TD fumarate at the dosage of 5, 15, 45 mg/kg once a day respectively, other three groups were given Tenofovir Disoproxil Fumarate at the dosage of 5, 15, 45 mg/kg once a day respectively, other one group was given Adefovir Dipivoxil at the dosage of 15 mg/kg once a day and the remaining group was blank control group. All the groups were administered for 28 days, and blood samples were taken every 7 days to determine the inhibitory effect to the DHBV-DNA level by PCR, inhibition rate was listed in the following table.

Compound: C[C@H](Cn1cnc2c(N)ncnc21)OCP(=O)(OCOC(=O)C(C)(C)C)OCOC(=O)C(C)(C)C [TD crystalline form B, 9-[2-(R)-[bis[pivaloyloxymethoxy]-phosphinylmethoxy]propyl]adenine]
- stability, overall conclusion in words [1]: good stabilities
- content (%) ([2]; day 0): 99.6%
- Weight gain after moisture absorption (%) ([2]; day 5): 0%
- content (%) ([2]; day 5): 98.2%
- Weight gain after moisture absorption (%) ([2]; day 10): 0.2%
- content (%) ([2]; day 10): 96.9%
- content (%) ([3]; day 0): 99.2%
- content (%) ([3]; day 5): 98.8%
- content (%) ([3]; day 10): 98.7%
- solubility conclusion, 0.1N HCl [4]: soluble
- solubility conclusion, 0.1N NaOH [4]: slightly
- solubility conclusion, anhydrous ethanol [4]: freely soluble
- solubility conclusion, methanol [4]: freely soluble
- amount of solvent (ml), 0.1N HCl [4]: 27.3 mL
- amount of solvent (ml), 0.1N NaOH [4]: 790 mL
- amount of solvent (ml), anhydrous ethanol [4]: 6.0 mL
- amount of solvent (ml), methanol [4]: 1.5 mL
- amount of solvent (ml), water [4]: 840 mL
- solubility conclusion, water [4]: slightly
- content (%) ([5]; day 0): 98.8%
- content (%) ([5]; day 5): 97.7%
- content (%) ([5]; day 10): 97.0%
- content (%) ([6]; end of month 1): 95.8%
- content (%) ([6]; end of month 2): 92.7%
- content (%) ([6]; end of month 3): 88.7%

Compound: C[C@H](Cn1cnc2c(N)ncnc21)OCP(=O)(OCOC(=O)C(C)(C)C)OCOC(=O)C(C)(C)C.O=C(O)/C=C/C(=O)O [TD fumarate]
- stability, overall conclusion in words [1]: good solubility and stabilities
- content (%) ([2]; day 0): 99.2%
- Weight gain after moisture absorption (%) ([2]; day 5): 0%
- content (%) ([2]; day 5): 99.1%
- Weight gain after moisture absorption (%) ([2]; day 10): 0%
- content (%) ([2]; day 10): 99.1%
- LD50 at 14 days ([7]; read-out: LD50): 6050 mg/kg
- LD50 at 14 days ([7]; read-out: LD50, 95% confident limit): 4500 to 7870 mg/kg
- content (%) ([3]; day 0): 99.2%
- content (%) ([3]; day 5): 99.2%
- content (%) ([3]; day 10): 99.1%
- blood concentration ([8]; 10 min): 0.73 µg/mL
- blood concentration ([8]; 30 min): 1.44 µg/mL
- blood concentration ([8]; 45 min): 1.77 µg/mL
- blood concentration ([8]; 60 min): 2.52 µg/mL
- blood concentration ([8]; 90 min): 1.34 µg/mL
- blood concentration ([8]; 120 min): 1.03 µg/mL
- blood concentration ([8]; 180 min): 0.94 µg/mL
- blood concentration ([8]; 240 min): 0.73 µg/mL
- blood concentration ([8]; 360 min): 0.55 µg/mL
- blood concentration ([8]; 480 min): 0.34 µg/mL
- solubility conclusion, 0.1N HCl [4]: soluble
- solubility conclusion, 0.1N NaOH [4]: soluble
- solubility conclusion, anhydrous ethanol [4]: freely soluble
- solubility conclusion, methanol [4]: freely
- amount of solvent (ml), 0.1N HCl [4]: 18.5 mL
- amount of solvent (ml), 0.1N NaOH [4]: 65 mL
- amount of solvent (ml), anhydrous ethanol [4]: 15.5 mL
- amount of solvent (ml), methanol [4]: 7.4 mL
- amount of solvent (ml), water [4]: 120 mL
- solubility conclusion, water [4]: soluble
- water solubility compared with other solid TD forms, in words [4]: better water solubility
- content (%) ([5]; day 0): 99.5%
- content (%) ([5]; day 5): 99.5%
- content (%) ([5]; day 10): 99.4%
- DHBV-DNA level, First week (Duck Hepatitis B Virus; 5 mg/ml group): 92 ± 7
- DHBV-DNA level, Fourth week (Duck Hepatitis B Virus; 5 mg/ml group): 40 ± 5
- DHBV-DNA level, Second week (Duck Hepatitis B Virus; 5 mg/ml group): 71 ± 5
- DHBV-DNA level, Third week (Duck Hepatitis B Virus; 5 mg/ml group): 50 ± 9
- DHBV-DNA level, First week (Duck Hepatitis B Virus; 15 mg/ml group): 78 ± 9
- DHBV-DNA level, Fourth week (Duck Hepatitis B Virus; 15 mg/ml group): 25 ± 7
- DHBV-DNA level, Second week (Duck Hepatitis B Virus; 15 mg/ml group): 59 ± 8
- DHBV-DNA level, Third week (Duck Hepatitis B Virus; 15 mg/ml group): 39 ± 7
- DHBV-DNA level, First week (Duck Hepatitis B Virus; 45 mg/ml group): 65 ± 6
- DHBV-DNA level, Fourth week (Duck Hepatitis B Virus; 45 mg/ml group): 16 ± 8
- DHBV-DNA level, Second week (Duck Hepatitis B Virus; 45 mg/ml group): 43 ± 5
- DHBV-DNA level, Third week (Duck Hepatitis B Virus; 45 mg/ml group): 25 ± 10
- content (%) ([6]; end of month 1): 99.0%
- content (%) ([6]; end of month 2): 98.7%
- content (%) ([6]; end of month 3): 98.5%
- content (%) ([6]; month 0): 99.3%

- content (%) ([2]; day 0): 99.2%
- Weight gain after moisture absorption (%) ([2]; day 5): 0%
- content (%) ([2]; day 5): 99.1%
- Weight gain after moisture absorption (%) ([2]; day 10): 0%
- content (%) ([2]; day 10): 99.1%
- content (%) ([3]; day 0): 99.2%
- content (%) ([3]; day 5): 99.0%
- content (%) ([3]; day 10): 99.3%
- solubility conclusion, 0.1N HCl [4]: not
- solubility conclusion, 0.1N NaOH [4]: not soluble
- solubility conclusion, anhydrous ethanol [4]: slightly
- solubility conclusion, methanol [4]: slightly
- amount of solvent (ml), 0.1N HCl [4]: >1000 mL
- amount of solvent (ml), 0.1N NaOH [4]: >1000 mL
- amount of solvent (ml), anhydrous ethanol [4]: 650 mL
- amount of solvent (ml), methanol [4]: 760 mL
- amount of solvent (ml), water [4]: >1000 mL
- solubility conclusion, water [4]: not soluble
- content (%) ([5]; day 0): 99.0%
- content (%) ([5]; day 5): 98.9%
- content (%) ([5]; day 10): 98.6%
- content (%) ([6]; end of month 1): 98.7%
- content (%) ([6]; end of month 2): 98.5%
- content (%) ([6]; end of month 3): 98.4%
- content (%) ([6]; month 0): 99.2%
Compound: CC(Cn1cnc2c(N)ncnc21)OCP(=O)(OCOC(=O)C(C)(C)C)OCOC(=O)C(C)(C)C.CC1(C)CCC2(C(=O)O)CCC3(C)C(=CCC4C5(C)CCC(O)C(C)(C)C5CCC43C)C2C1 (stereo not shown) [TD oleanolate]

Compound: CC(C)OC(=O)OCOP(=O)(CO[C@H](C)Cn1cnc2c(N)ncnc21)OCOC(=O)OC(C)C [Tenofovir Disoproxil Fumarate]
- DHBV-DNA level, First week (Duck Hepatitis B Virus; 5 mg/ml group): 90 ± 9
- DHBV-DNA level, Fourth week (Duck Hepatitis B Virus; 5 mg/ml group): 50 ± 7
- DHBV-DNA level, Second week (Duck Hepatitis B Virus; 5 mg/ml group): 79 ± 5
- DHBV-DNA level, Third week (Duck Hepatitis B Virus; 5 mg/ml group): 65 ± 6
- DHBV-DNA level, First week (Duck Hepatitis B Virus; 15 mg/ml group): 83 ± 6
- DHBV-DNA level, Fourth week (Duck Hepatitis B Virus; 15 mg/ml group): 37 ± 8
- DHBV-DNA level, Second week (Duck Hepatitis B Virus; 15 mg/ml group): 66 ± 7
- DHBV-DNA level, Third week (Duck Hepatitis B Virus; 15 mg/ml group): 53 ± 5
- DHBV-DNA level, First week (Duck Hepatitis B Virus; 45 mg/ml group): 75 ± 9
- DHBV-DNA level, Fourth week (Duck Hepatitis B Virus; 45 mg/ml group): 25 ± 7
- DHBV-DNA level, Second week (Duck Hepatitis B Virus; 45 mg/ml group): 43 ± 8
- DHBV-DNA level, Third week (Duck Hepatitis B Virus; 45 mg/ml group): 35 ± 6

Compound: C[C@H](Cn1cnc2c(N)ncnc21)OCP(=O)(OCOC(=O)C(C)(C)C)OCOC(=O)C(C)(C)C [amorphous TD, 9-[2-(R)-[bis[pivaloyloxymethoxy]-phosphinylmethoxy]propyl]adenine]
- content (%) ([2]; day 0): 99.0%
- Weight gain after moisture absorption (%) ([2]; day 5): 1.0%
- content (%) ([2]; day 5): 97.9%
- Weight gain after moisture absorption (%) ([2]; day 10): 2.3%
- content (%) ([2]; day 10): 95.8%
- content (%) ([3]; day 0): 98.5%
- content (%) ([3]; day 5): 98.3%
- content (%) ([3]; day 10): 98.1%
- solubility conclusion, 0.1N HCl [4]: soluble
- solubility conclusion, 0.1N NaOH [4]: slightly
- solubility conclusion, anhydrous ethanol [4]: freely soluble
- solubility conclusion, methanol [4]: freely soluble
- amount of solvent (ml), 0.1N HCl [4]: 25.2 mL
- amount of solvent (ml), 0.1N NaOH [4]: 613 mL
- amount of solvent (ml), anhydrous ethanol [4]: 5.6 mL
- amount of solvent (ml), methanol [4]: 2.0 mL
- amount of solvent (ml), water [4]: 380 mL
- solubility conclusion, water [4]: soluble
- water solubility compared with other solid TD forms, in words [4]: better solubility than crystalline TD in water
- content (%) ([5]; day 0): 98.5%
- content (%) ([5]; day 5): 97.5%
- content (%) ([5]; day 10): 97.1%
- content (%) ([6]; end of month 1): 92.3%
- content (%) ([6]; end of month 2): 88.9%
- content (%) ([6]; end of month 3): 82.8%
- content (%) ([6]; month 0): 99.0%
